From patent publication US12510524B2, “Compositions containing cannabinoid analog conjugates and methods of use” (priority 2014, dated 2025)
Like-named read-outs stand apart in the source and are kept apart here.

Columns and labels:
[1] = test system: WP DLBCL cell line; assay: MTS cell viability assay, WP; type: cell-based; settings: read-out: IC50 on cell viability
[2] = test system: McA DLBCL cell line; assay: MTS cell viability assay, McA; type: cell-based; settings: 72 h, read-out: IC50 on cell viability
Description: (§3) The formazan dye is quantified by measuring the absorbance at 490-500 nm.

[3] = test system: EJ DLBCL cancer cell line; assay: MTS cell viability assay, EJ; type: cell-based; settings: read-out: IC50 on cell viability
Description: as §3

[4] = test system: MS DLBCL cell line; assay: MTS cell viability assay, MS; type: cell-based; settings: 72 h
Description: (§1) The effects of SR141716 and VYR206 were analyzed. MTS assays for cell viability (72 h incubation) were performed on diffuse large B-cell lymphoma (DLBCL) cells—LR, MS, RC and DOHH2 (FIGS. 18A-18D) and mantle cell lymphoma (MCL) cells—Jeko, Mino, Rec-1 and JMP1 (FIGS. 19A-19D).

[5] = test system: mantle cell lymphoma (MCL; 8 cell lines); assay: Cell viability, 8 MCL cell lines (Example 6); type: cell-based; settings: lower-dose 10-40 μM; steep initial slopes especially in Rec-1 and SP-53; FIG. 17C
Description: (§2) In Examples 6-8, N4-conjugated compounds were analyzed. The effects of CBi inverse agonist SR141716 and its conjugated form-VYR206 were analyzed using diffuse large B-cell lymphoma (DLBCL; 16 cancer cell lines; FIGS. 17A and 17B) and mantle cell lymphoma (MCL; 8 cell lines; FIGS. 17C and 17D) cancer cells. […] Diffuse large B-cell lymphoma cancer cells were resistant to lower VYR206 concentration (<50 μM) (FIG. 17B). […] Rimonabant by itself has severe adverse effects in patients with high or chronic dosing. Curtailing or modifying the potency may help to reduce adverse effects while still providing a therapeutic effect against cancerous cells.

[6] = test system: LY19 DLBCL cancer cell line; assay: MTS cell viability assay, LY19; type: cell-based; settings: for IC50: read-out: IC50 on cell viability
Description: as §3

[7] = test system: RC DLBCL cell line; assay: MTS cell viability assay, RC; type: cell-based; settings: drug concentration 50 μM, 72 h
Description: as §1

[8] = test system: HB DLBCL cell line; assay: MTS cell viability assay, HB; type: cell-based; settings: read-out: IC50 on cell viability
[9] = test system: diffuse large B-cell lymphoma (DLBCL; 16 cancer cell lines); assay: Cell viability, 16 DLBCL cancer cell lines (Example 6); type: cell-based; settings: 16 DLBCL cell lines; compared with VYR206; FIG. 17A
Description: as §2

[10] = test system: CJ DLBCL cancer cell line; assay: MTS cell viability assay, CJ; type: cell-based; settings: read-out: IC50 on cell viability
Description: as §3

[11] = test system: LP DLBCL cell line; assay: MTS cell viability assay, LP; type: cell-based; settings: read-out: IC50 on cell viability
Description: as §3

[12] = test system: LR DLBCL cell line; assay: MTS cell viability assay, LR; type: cell-based; settings: for IC50: read-out: IC50 on cell viability
Description: as §1

[13] = test system: LY-10 DLBCL cell line; assay: MTS cell viability assay, LY-10; type: cell-based; settings: read-out: IC50 on cell viability
Description: as §3

[14] = test system: Ly-3 DLBCL cell line; assay: MTS cell viability assay, Ly-3; type: cell-based; settings: read-out: IC50 on cell viability
Description: as §3

[15] = test system: HF DLBCL cell line; assay: MTS cell viability assay, HF; type: cell-based; settings: read-out: IC50 on cell viability
Description: as §3

[16] = test system: DOHH2 DLBCL cell line; assay: MTS cell viability assay, DOHH2; type: cell-based; settings: Homo sapiens, DOHH-2, 72 h
Description: as §1

[17] = test system: DLBCL cancer cell lines; assay: MTS cell viability assay, DLBCL cell lines as a group; type: cell-based; settings: for IC50: read-out: Average IC50
Description: as §1

[18] = test system: U2932 DLBCL cancer cell line
Description: as §3

[19] = test system: cleaved PARP in RC cells; assay: Immunoblot of apoptosis induction in RC cells; type: cell-based; settings: 6.25, 12.5, 25 and 50 μM, 24 hrs

Cc1c(C(=O)NN2CCCCC2)nn(-c2ccc(Cl)cc2Cl)c1-c1ccc(Cl)cc1 [SR141716, N-(Piperidin-1-yl)-5-(4-chlorophenyl)-1-(2,4-dichlorophenyl)-4-methyl-1H-pyrazole-3-carboxamide]
IC50 ([1]; 72 h): 25.5 µM
IC50 [2]: 21.8 µM
IC50 ([3]; 72 h): 20.6 µM
IC50 ([4]; read-out: IC50 on cell viability): 23.7 µM
induction of cell death ([4]; MS, drug concentration 50 μM, MTS): < 90%
cell viability in MCL cell lines [5]: reduction of cell viability
IC50 ([6]; 72 h): 15.2 µM
effect on viability, comparison between cell lines ([6]; LY19, MTS, 72 h incubation): more potent effect on LY19
induction of cell death [7]: < 90%
IC50 ([8]; 72 h): 29.4 µM
cell viability of DLBCL [9]: markedly decreased viability
IC50 ([10]; 72 h): 13.5 µM
IC50 ([11]; 72 h): 27.1 µM
IC50 ([12]; 72 h): 30.9 µM
induction of cell death ([12]; LR, drug concentration 50 μM, MTS, 72 h): < 90%
IC50 ([13]; LY10, 72 h): 25.1 µM
IC50 ([14]; 72 h): 25.2 µM
IC50 ([15]; 72 h): 32.7 µM
inhibition at 50 µM [16]: > 50%
effect on the viability of DLBCL cancer cell lines ([17]; EJ, U2932, CJ and LY19, MTS, 72 h incubation, FIGS. 13-16): significant results depending on the specific cell line
effectiveness on DLBCL, comparison of the two drugs ([17]; LR, MS, RC and DOHH2, MTS, 72 h): more effective to DLBCL than VYR206
IC50 [17]: 24.4 µM
IC50 [18]: 26.2 µM

C=C(C)[C@@H]1CCC(C)=C[C@H]1c1c(O)cc(CCCCC)cc1OCCCN1CCCNCCNCCCNCC1 [VYC203, N4-Cannabidiol]
cleaved PARP expression [19]: Concentration-dependent increase

C=CC(=O)N1CCC[C@@H](n2nc(-c3ccc(Oc4ccccc4)cc3)c3c(N)ncnc32)C1 [ibrutinib]
IC50 ([1]; WP, MTS, 72 h incubation): 1 µM
IC50 ([3]; EJ, MTS, 72 h incubation): 30 µM
IC50 ([6]; LY19, MTS, 72 h incubation): 10 µM
IC50 ([8]; HB, MTS, 72 h incubation): 20 µM
IC50 ([10]; CJ, MTS, 72 h incubation): 25 µM
IC50 ([11]; LP, MTS, 72 h incubation): 6 µM
IC50 ([12]; LR, MTS, 72 h incubation): 20 µM
IC50 ([13]; LY10, LY-10, MTS, 72 h incubation): 0.5 µM
IC50 ([14]; Ly-3, MTS, 72 h incubation): 20 µM
IC50 ([15]; HF, MTS, 72 h incubation): 18 µM
IC50 ([17]; average over the 13 DLBCL cell lines of Table 5): 15.8 µM
IC50 [18]: 15 µM
